Measurements: patent US20220053758A1, “Microcapsule With Acetamides And Diflufenican” (Monsanto Technology LLC, priority 2020, published 2022)

Columns and labels:
[1] = system: AMAPA (WR-2015-008), resistant against glyphosate and metribuzin (PSII-inhibitor), PPO-, HPPD- and ALS-inhibitor herbicides; experiment: Greenhouse pre-emergent efficacy on multiple resistant AMAPA, Example 3D; type: in vivo, Amaranthus palmeri; conditions: 21 DAT
Experimental: (§1) Premixes of present disclosure were compared with ACC and DFF used as the commercial products Warrant® and Brodal® as described in Example 3A above, as well as a corresponding tank-mix of ACC+DFF. Two different pre-mix formulations according to the present disclosure were evaluated for pre-emergent efficacy on the following difficult to control multiple resistant palmer amaranth (Amaranthus palmeri, AMAPA) species: AMAPA (WR-2015-002), resistant against glyphosate, PPO-, HPPD- and ALS-inhibitor herbicides; and AMAPA (WR-2015-008), resistant against glyphosate and metribuzin (PSII-inhibitor), PPO-, HPPD- and ALS-inhibitor herbicides.
(§2) At 21 DAT (days after treatment), visual percent control as well as fresh biomass ratings were recorded for all replications. […] Percent control was then calculated based on the respective untreated control plants.

[2] = system: AMAPA (WR-2015-002), resistant against glyphosate, PPO-, HPPD- and ALS-inhibitor herbicides; experiment: as above; type: in vivo, Amaranthus palmeri; conditions: 21 DAT
Experimental: as §1, §2

[3] = system: glyphosate resistant Canola (Roundup Ready® Canola); experiment: Greenhouse post-emergent efficacy in glyphosate resistant Canola, Example 3C; type: in vivo; conditions: visual rating 14 DAT
Experimental: ACC and DFF were used as the commercial products Warrant® and Brodal® as described in Example 3A above. The seeds of glyphosate resistant Canola (Roundup Ready® Canola) were planted in 3.5-inches (8.89 cm) square plastic pots filled with a potting media of 75% silt loam and 25% Redi-earth (Sun Gro, Bellevue, Wash.). The temperature conditions were 22° C. day and 17° C. night with 14 hours of supplemental light (approximately 600 microeinsteins). The pots are placed in a controlled-environment greenhouse equipped with sub-irrigation. The treatments applications were applied to the plants with a track sprayer generally using a TTI110015 nozzle spray nozzle. The spray nozzle was 16 inches (40.64 cm) above the top of the plants and a spray volume rate of about 140 L/ha was applied. The plants were sprayed when canola was at the V3-V4 growth stage. Visual ratings (% control) were collected at 14 DAT.

[4] = system: GR (glyphosate resistant) palmer amaranth (AMAPA); experiment: Greenhouse pre-emergent efficacy, Example 3B; type: in vivo, Amaranthus palmeri; conditions: rates tested (½× and 1×)
From the text: (§3) ACC, DFF and MRB were used as the commercial products Warrant®, Brodal® and TriCor® DF as described in Example 3A above. Further, also a DFF+MRB pre-mix (200 g/L DFF+400 g/L MRB, suspension concentrate) was used. For GR (glyphosate resistant) palmer amaranth (AMAPA), at 1× rate, all 2- and 3-way treatments provided >95% control. Except for the DFF+MRB pre-mix, these treatments also provided >95% control of GR AMAPA at ½× rate as well. No single active ingredient provided acceptable control of GR AMAPA in this trial.

proso millet (PANMI) = experiment: Greenhouse pre-emergent efficacy, Example 3B; type: in vivo, Panicum miliaceum; conditions: both rates tested (½× and 1×)
From the text: as §3

[5] = 25° C.; cited from earlier work
[6] = group line over the three rates (1×, ½×, ¼×)

Row | SMILES | Injury Average AMAPA (WR-2015-008) ([1]; 1× (ACC 1260, DFF 150 g ai/ha)) [%] | Injury Average AMAPA (WR-2015-008) ([1]; ½× (ACC 630, DFF 75 g ai/ha)) [%] | Injury Average AMAPA (WR-2015-002) ([2]; 1× (ACC 1260, DFF 150 g ai/ha)) [%] | Injury Average AMAPA (WR-2015-002) ([2]; ½× (ACC 630, DFF 75 g ai/ha)) [%] | Canola Crop Injury Average [3, 6] [%] | Canola Crop Injury Average ([3]; ¼× (ACC 315, DFF 38 g ai/ha)) [%] | Canola Crop Injury Average ([3]; ½× (ACC 630, DFF 75 g ai/ha)) [%] | control of GR AMAPA, in words [4] | control of proso millet (PANMI), in words (proso millet (PANMI)) | water solubility [5]
1 | CCOCN(C(=O)CCl)c1c(C)cccc1CC [ACC, 2-chloro-N-(ethoxymethyl)-N-(2-ethyl-6-methylphenyl)acetamide] | 73.8 | 60.6 | 81.6 | 61.9 | 6.7 | 0.0 | 2.5 | weak control | weak control | 
2 | O=C(Nc1ccc(F)cc1F)c1cccnc1Oc1cccc(C(F)(F)F)c1 [DFF, N-(2,4-difluorophenyl)-2-[3-(trifluoromethyl)phenoxy]-3-pyridinecarboxamide] | 75.6 | 65.6 | 70.6 | 51.3 | 18.3 | 3.1 | 13.8 | weak control | weak control | about 50 μg/L
